In patent US20230017045A1, “PYRIDINE AND PYRIMIDINE CARBOXYLATE HERBICIDES AND METHODS OF USE THEREOF” (Dow AgroSciences LLC, priority 2017, published 2023):
Where two headings read alike, the source gives them in different places.

System: test plant species
Assay: Post-emergent herbicidal activity test (greenhouse, foliar spray, visual growth reduction)
Format: in vivo
Settings: post-emergence, 336 h, 140 g ai/ha
How it was run: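 Visual percent injury (0-100) rated 14 d after treatment, relative to nontreated and solvent-blank plants. Test plants at first or second true leaf stage received an overhead track-sprayer application at 187 L/ha. Compounds were formulated in aqueous acetone/DMSO carrier containing crop oil concentrate and X-77 surfactant.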

[1] = ALOMY: blackgrass (Alopecurus myosuroides), 14 days after application, read-out: Visual Growth Reduction (%) 14 Days After Application, ALOMY
[2] = AMARE: redroot pigweed (Amaranthus retroflexus), 14 days after application, read-out: Visual Growth Reduction (%) 14 Days After Application, AMARE
[3] = AVEFA: wild oat (Avena fatua), 14 days after application, read-out: Visual Growth Reduction (%) 14 Days After Application, AVEFA
[4] = CHEAL: lambsquarters (Chenopodium album), 14 days after application, read-out: Visual Growth Reduction (%) 14 Days After Application, CHEAL
[5] = CIRAR: canada thistle (Cirsium arvense), 14 days after application, read-out: Visual Growth Reduction (%) 14 Days After Application, CIRAR
[6] = CYPES: yellow nutsedge (Cyperus esculentus), 14 days after application, read-out: Visual Growth Reduction (%) 14 Days After Application, CYPES
[7] = DIGSA: crabgrass (Digitaria sanguinalis), 14 days after application, read-out: Visual Growth Reduction (%) 14 Days After Application, DIGSA
[8] = ECHCG: barnyardgrass (Echinochloa crus-galli), 14 days after application, read-out: Visual Growth Reduction (%) 14 Days After Application, ECHCG
[9] = IPOHE: ivy-leaf morning glory (Ipomoea hederacea), 14 days after application, read-out: Visual Growth Reduction (%) 14 Days After Application, IPOHE
[10] = KCHSC: kochia (Bassia scoparia), 14 days after application, read-out: Visual Growth Reduction (%) 14 Days After Application, KCHSC
[11] = ORYSA: rice (Oryza sativa), 14 days after application, read-out: Visual Growth Reduction (%) 14 Days After Application, ORYSA
[12] = SETFA: giant foxtail (Setaria faberi), 14 days after application, read-out: Visual Growth Reduction (%) 14 Days After Application, SETFA
[13] = SORVU: grain sorghum (Sorghum vulgare), 14 days after application, read-out: Visual Growth Reduction (%) 14 Days After Application, SORVU
[14] = STEME: common chickweed (Stellaria media), 14 days after application, read-out: Visual Growth Reduction (%) 14 Days After Application, STEME
[15] = TRZAS: wheat, spring (Triticum aestivum), 14 days after application, read-out: Visual Growth Reduction (%) 14 Days After Application, TRZAS
[16] = blackgrass (Alopecurus myosuroides), 14 Days After Application, read-out: Visual Growth Reduction (%) ALOMY
[17] = canada thistle (Cirsium arvense), 14 Days After Application, read-out: Visual Growth Reduction (%) CIRAR
[18] = crabgrass (Digitaria sanguinalis), 14 Days After Application, read-out: Visual Growth Reduction (%) DIGSA
[19] = lambsquarters (Chenopodium album), 14 Days After Application, read-out: Visual Growth Reduction (%) CHEAL
[20] = redroot pigweed (Amaranthus retroflexus), 14 Days After Application, read-out: Visual Growth Reduction (%) AMARE
[21] = wild oat (Avena fatua), 14 Days After Application, read-out: Visual Growth Reduction (%) AVEFA
[22] = yellow nutsedge (Cyperus esculentus), 14 Days After Application, read-out: Visual Growth Reduction (%) CYPES

Structure (SMILES) | pest or weed control at 140 g/ha [1] [%] | pest or weed control at 140 g/ha [2] [%] | pest or weed control at 140 g/ha [3] [%] | pest or weed control at 140 g/ha [4] [%] | pest or weed control at 140 g/ha [5] [%] | pest or weed control at 140 g/ha [6] [%] | pest or weed control at 140 g/ha [7] [%] | pest or weed control at 140 g/ha [8] [%] | pest or weed control at 140 g/ha [9] [%] | pest or weed control at 140 g/ha [10] [%] | pest or weed control at 140 g/ha [11] [%] | pest or weed control at 140 g/ha [12] [%] | pest or weed control at 140 g/ha [13] [%] | pest or weed control at 140 g/ha [14] [%] | pest or weed control at 140 g/ha [15] [%] | pest or weed control at 140 g/ha [16] [%] | pest or weed control at 140 g/ha [17] [%] | pest or weed control at 140 g/ha [18] [%] | pest or weed control at 140 g/ha [19] [%] | pest or weed control at 140 g/ha [20] [%] | further results
O=C(O)c1nc(-c2ncc(C(F)(F)F)cc2Cl)ccc1Cl [F164, 3′,5-Dichloro-5′-(trifluoromethyl)-[2,2′-bipyridine]-6-carboxylic acid] | 60 to 74 | 95 to 100 | 60 to 74 | 95 to 100 | 85 to 94 | 0 to 29 | 95 to 100 | 85 to 94 | 95 to 100 | 95 to 100 | 60 to 74 | 95 to 100 | 85 to 94 | 30 to 44 | 85 to 94 |  |  |  |  |  | 
O=C(O)c1nc(-c2ccc(C(F)(F)F)cc2)c(Cl)cc1Cl [F96, 3,5-Dichloro-6-(4-(trifluoromethyl)phenyl)picolinic acid] | 0 to 29 | 30 to 44 | 0 to 29 | 60 to 74 | 30 to 44 | 0 to 29 | 0 to 29 | 0 to 29 | 75 to 84 | 0 to 29 | 0 to 29 | 45 to 59 | 60 to 74 | 0 to 29 | 0 to 29 |  |  |  |  |  | 
C=Cc1ccc(-c2ccc(Cl)c(C(=O)OC)n2)c(Cl)c1 [F23, methyl 3-chloro-6-(2-chloro-4-vinylphenyl)picolinate] | 0 to 29 | 0 to 29 | 0 to 29 | 0 to 29 | 0 to 29 | 0 to 29 | 0 to 29 | 0 to 29 | 30 to 44 | 0 to 29 | 0 to 29 | 0 to 29 | 0 to 29 | 0 to 29 | 0 to 29 |  |  |  |  |  | 
COC(=O)c1nc(-c2ccc(C(F)(F)F)c(C#N)c2Cl)ccc1Cl [F143, methyl 3-chloro-6-(2-chloro-3-cyano-4-(trifluoromethyl)phenyl)picolinate] | 0 to 29 | 45 to 59 | 0 to 29 | 30 to 44 | 0 to 29 | 0 to 29 | 75 to 84 | 0 to 29 | 75 to 84 | 0 to 29 | 0 to 29 | 0 to 29 | 60 to 74 | 0 to 29 | 0 to 29 |  |  |  |  |  | 
COC(=O)c1nc(-c2cc(Cl)cnc2OC)ccc1Cl [F129, Methyl 5,5′-dichloro-2′-methoxy-[2,3′-bipyridine-6-carboxylate] | 0 to 29 | 0 to 29 | 0 to 29 | 0 to 29 | 0 to 29 | 0 to 29 | 0 to 29 | 0 to 29 | 0 to 29 | 0 to 29 | 0 to 29 | 0 to 29 | 0 to 29 | 0 to 29 | 0 to 29 |  |  |  |  |  | 
COC(=O)c1nc(-c2ccc(OC(F)(F)F)cc2OC)c(F)cc1Cl [F215, Methyl 3-chloro-5-fluoro-6-(2-methoxy-4-(trifluoromethoxy)phenyl)picolinate] |  |  |  |  |  |  |  | 85 to 94 | 95 to 100 | 75 to 84 | 0 to 29 | 95 to 100 | 95 to 100 | 30 to 44 | 45 to 59 | 0 to 29 | 85 to 94 | 45 to 59 | 85 to 94 | 85 to 94 | pest or weed control at 140 g/ha [21]: 60 to 74%; pest or weed control at 140 g/ha [22]: 0 to 29%
COC(=O)c1nc(-c2ccc(C(F)(F)F)cc2C)c(F)cc1F [F376, Methyl 3,5-difluoro-6-(2-methyl-4-(trifluoromethyl)phenyl)picolinate] |  |  |  |  |  |  |  | 0 to 29 | 95 to 100 | 45 to 59 | 0 to 29 | 60 to 74 | 85 to 94 | 0 to 29 | 0 to 29 | 0 to 29 | 60 to 74 | 60 to 74 | 85 to 94 | 95 to 100 | pest or weed control at 140 g/ha [21]: 0 to 29%; pest or weed control at 140 g/ha [22]: 0 to 29%
Cc1cc(C(F)(F)F)ccc1-c1nc(C(=O)O)c(Cl)cc1F [F267, 3-Chloro-5-fluoro-6-(2-methyl-4-(trifluoromethyl)phenyl) picolinic acid] |  |  |  |  |  |  |  | 75 to 84 | 95 to 100 | 60 to 74 | 0 to 29 | 85 to 94 | 95 to 100 | 0 to 29 | 60 to 74 | 30 to 44 | 85 to 94 | 85 to 94 | 95 to 100 | 95 to 100 | pest or weed control at 140 g/ha [21]: 45 to 59%; pest or weed control at 140 g/ha [22]: 0 to 29%
COC(=O)c1nc(-c2cccc(F)c2OC)c(F)cc1Cl [F264, Methyl 3-chloro-5-fluoro-6-(3-fluoro-2-methoxyphenyl) picolinate] |  |  |  |  |  |  |  | 0 to 29 | 95 to 100 | 0 to 29 | 0 to 29 | 0 to 29 | 0 to 29 | 0 to 29 | 0 to 29 | 0 to 29 | 30 to 44 | 0 to 29 | 75 to 84 | 0 to 29 | pest or weed control at 140 g/ha [21]: 0 to 29%; pest or weed control at 140 g/ha [22]: 0 to 29%
COC(=O)c1nc(-c2ccc(C(F)(F)F)cc2C)ccc1Cl [F29, Methyl 3-chloro-6-(2-methyl-4-(trifluoromethyl)phenyl)picolinate] | 0 to 29 | 60 to 74 | 0 to 29 | 60 to 74 | 0 to 29 | 0 to 29 | 45 to 59 | 0 to 29 | 95 to 100 | 0 to 29 | 0 to 29 | 0 to 29 | 60 to 74 | 0 to 29 | 0 to 29 |  |  |  |  |  | 
